Where “and” joins values, the source holds several entries; their conditions need not be identical. Equal entries are not always repeated. Where two headings read alike, the source gives them in different places.
How the values were obtained:
carbamoylated AChE (EC) = carbamoylated AChE (EC) (Homo sapiens, UniProt P22303); assay: Carbachol binding to carbamoylated AChE
recombinant human AChE = recombinant human AChE (Homo sapiens, UniProt P22303); assay type: biochemical; settings: for k12 + k21: 15.6 μM thioflavin T; for k122: two-component fit, minor component E2
[1] = target: free AChE (E), recombinant human AChE (Homo sapiens, UniProt P22303); settings: cited from earlier work
AChE = settings: cited from earlier work; for i2 for thioflavin T with A-site ligand: ternary complex with thioflavin T
[2] = maximum parameter range fit, iEC fixed at 1e-6
[3] = maximum parameter range fit, iECKECS fixed at 8 mM
[4] = maximum parameter range fit, i fixed at 1e-6
[5] = maximum parameter range fit, iKs fixed at 12 mM

carbamoylated AChE (EC), sequence (P22303 32-574 limits assumed): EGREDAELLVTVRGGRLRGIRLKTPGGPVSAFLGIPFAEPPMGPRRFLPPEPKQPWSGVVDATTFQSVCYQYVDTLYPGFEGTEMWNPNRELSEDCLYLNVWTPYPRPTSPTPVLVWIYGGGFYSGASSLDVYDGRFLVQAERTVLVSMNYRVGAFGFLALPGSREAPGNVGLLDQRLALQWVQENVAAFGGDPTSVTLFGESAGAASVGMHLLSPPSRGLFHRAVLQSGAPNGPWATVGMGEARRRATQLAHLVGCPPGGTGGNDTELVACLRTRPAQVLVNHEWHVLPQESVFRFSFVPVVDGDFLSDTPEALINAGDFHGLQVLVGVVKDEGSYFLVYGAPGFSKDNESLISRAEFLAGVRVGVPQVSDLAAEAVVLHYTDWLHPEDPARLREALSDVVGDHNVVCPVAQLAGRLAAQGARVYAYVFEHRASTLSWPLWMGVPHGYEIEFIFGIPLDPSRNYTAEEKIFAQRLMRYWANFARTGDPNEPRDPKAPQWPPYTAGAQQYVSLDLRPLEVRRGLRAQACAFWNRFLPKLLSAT
recombinant human AChE, sequence (P22303 32-614): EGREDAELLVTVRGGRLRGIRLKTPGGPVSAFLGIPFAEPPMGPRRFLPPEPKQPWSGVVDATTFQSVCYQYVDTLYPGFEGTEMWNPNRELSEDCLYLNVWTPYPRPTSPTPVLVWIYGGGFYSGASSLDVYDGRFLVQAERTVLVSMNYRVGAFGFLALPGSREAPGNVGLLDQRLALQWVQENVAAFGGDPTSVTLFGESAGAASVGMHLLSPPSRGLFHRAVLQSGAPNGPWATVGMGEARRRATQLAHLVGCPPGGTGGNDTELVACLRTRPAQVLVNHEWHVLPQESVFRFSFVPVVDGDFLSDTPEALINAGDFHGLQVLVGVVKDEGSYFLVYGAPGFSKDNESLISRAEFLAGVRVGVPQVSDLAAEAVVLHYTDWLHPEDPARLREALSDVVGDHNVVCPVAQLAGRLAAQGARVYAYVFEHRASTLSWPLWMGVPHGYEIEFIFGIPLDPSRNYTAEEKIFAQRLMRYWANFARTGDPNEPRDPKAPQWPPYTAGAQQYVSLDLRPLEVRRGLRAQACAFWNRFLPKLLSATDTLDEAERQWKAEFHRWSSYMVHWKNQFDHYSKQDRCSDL
free AChE (E), recombinant human AChE, sequence (P22303 32-614): as above

Structure (SMILES): C[N+](C)(C)CCOC(N)=O [carbachol, carbamoylcholine chloride]
- iEC (carbamoylated AChE (EC)): 1.23
- Kd (carbamoylated AChE (EC); KECM+S, combined binding to A- and P-sites in EC, iEC2 fixed at 0.90): 1700 ± 400 µM
- Kd (carbamoylated AChE (EC); KECM+S, maximum parameter range fit, iEC fixed at 1e-6): 1660 µM
- Kd (carbamoylated AChE (EC); KECM+S, maximum parameter range fit, iECKECS fixed at 8 mM): 1660 µM
- Kd (carbamoylated AChE (EC); KECM, A-site in EC, iEC2 fixed at 0.90): 1800 ± 500 µM
- Kd (carbamoylated AChE (EC); KECM, maximum parameter range fit, iEC fixed at 1e-6): 1660 µM
- fECSL/fESL (carbamoylated AChE (EC); for the three sets in Tables 1 and 2): 1.14 ± 0.03
- increase of fluorescence of bound thioflavin T when carbachol bound to the A-site in ternary complex with EC (carbamoylated AChE (EC); from fECL/fECSL): about 20%
- fECL/fECSL (carbamoylated AChE (EC); iEC2 fixed at 0.90): 0.83 and 0.83 ± 0.01
- Kd (carbamoylated AChE (EC); iECKECS, P-site in EC, iEC2 fixed at 0.90): 32000 ± 2000 µM
- Kd (carbamoylated AChE (EC); iECKECS, maximum parameter range fit, iEC fixed at 1e-6): 34000 µM
- fECL/fECSL (carbamoylated AChE (EC); [2]): 0.83
- iEC2 (carbamoylated AChE (EC); [2]): 0.96
- fECL/fECSL (carbamoylated AChE (EC); [3]): 0.83
- iEC (carbamoylated AChE (EC); [3]): 3.5
- iEC2 (carbamoylated AChE (EC); [3]): 0.21
- k12 + k21 (recombinant human AChE; 1.67 mM carbachol, one-component fit (eq 6)): 5.94 ± 0.02 min⁻¹
- k12 + k21 (recombinant human AChE; 1.67 mM carbachol, two-component fit (eq A2)): 6.53 ± 0.02 min⁻¹
- k122 (recombinant human AChE; 1.67 mM carbachol): 0.68 ± 0.04
- k12 + k21 (recombinant human AChE; 60 mM carbachol, one-component fit (eq 6)): 23.8 ± 0.3 min⁻¹
- k12 + k21 (recombinant human AChE; 60 mM carbachol, two-component fit (eq A2)): 27.0 ± 0.4 min⁻¹
- k122 (recombinant human AChE; 60 mM carbachol): 4.3 ± 0.3
- i [1]: 0.92
- fEL/fESL [1, 4]: 1.50
- i2 [1, 4]: 1.08
- fEL/fESL [1, 5]: 1.50
- i [1, 5]: 1.59
- i2 [1, 5]: 0.42
- fEL/fESL ([1]; one-site fit, (iKS)^−1 fixed at 0): 1.85
- Kd ([1]; read-out: iKs, P-site in E, i2 fixed at 0.90): 26000 ± 4000 µM

Structure (SMILES): CC[N+](C)(C)c1cccc(O)c1 [edrophonium]
- i2 for thioflavin T with A-site ligand (AChE): 1.12

Structure (SMILES): CC(=O)Nc1cccc([N+](C)(C)C)c1 [ATMA, 3-(acetamido)-N,N,N-trimethylanilinium]
- i2 for propidium with A-site ligand (AChE; ternary complex with propidium): 9.5
- i2 for thioflavin T with A-site ligand (AChE): 3.1

— publication PMC2655144 (Biochemistry, 2008)
